Molecular target: T1, Recombinant human ASK1 kinase (Homo sapiens, UniProt Q99683)
T1 construct: purchased Invitrogen Inc
T1 sequence (Q99683 1-1374): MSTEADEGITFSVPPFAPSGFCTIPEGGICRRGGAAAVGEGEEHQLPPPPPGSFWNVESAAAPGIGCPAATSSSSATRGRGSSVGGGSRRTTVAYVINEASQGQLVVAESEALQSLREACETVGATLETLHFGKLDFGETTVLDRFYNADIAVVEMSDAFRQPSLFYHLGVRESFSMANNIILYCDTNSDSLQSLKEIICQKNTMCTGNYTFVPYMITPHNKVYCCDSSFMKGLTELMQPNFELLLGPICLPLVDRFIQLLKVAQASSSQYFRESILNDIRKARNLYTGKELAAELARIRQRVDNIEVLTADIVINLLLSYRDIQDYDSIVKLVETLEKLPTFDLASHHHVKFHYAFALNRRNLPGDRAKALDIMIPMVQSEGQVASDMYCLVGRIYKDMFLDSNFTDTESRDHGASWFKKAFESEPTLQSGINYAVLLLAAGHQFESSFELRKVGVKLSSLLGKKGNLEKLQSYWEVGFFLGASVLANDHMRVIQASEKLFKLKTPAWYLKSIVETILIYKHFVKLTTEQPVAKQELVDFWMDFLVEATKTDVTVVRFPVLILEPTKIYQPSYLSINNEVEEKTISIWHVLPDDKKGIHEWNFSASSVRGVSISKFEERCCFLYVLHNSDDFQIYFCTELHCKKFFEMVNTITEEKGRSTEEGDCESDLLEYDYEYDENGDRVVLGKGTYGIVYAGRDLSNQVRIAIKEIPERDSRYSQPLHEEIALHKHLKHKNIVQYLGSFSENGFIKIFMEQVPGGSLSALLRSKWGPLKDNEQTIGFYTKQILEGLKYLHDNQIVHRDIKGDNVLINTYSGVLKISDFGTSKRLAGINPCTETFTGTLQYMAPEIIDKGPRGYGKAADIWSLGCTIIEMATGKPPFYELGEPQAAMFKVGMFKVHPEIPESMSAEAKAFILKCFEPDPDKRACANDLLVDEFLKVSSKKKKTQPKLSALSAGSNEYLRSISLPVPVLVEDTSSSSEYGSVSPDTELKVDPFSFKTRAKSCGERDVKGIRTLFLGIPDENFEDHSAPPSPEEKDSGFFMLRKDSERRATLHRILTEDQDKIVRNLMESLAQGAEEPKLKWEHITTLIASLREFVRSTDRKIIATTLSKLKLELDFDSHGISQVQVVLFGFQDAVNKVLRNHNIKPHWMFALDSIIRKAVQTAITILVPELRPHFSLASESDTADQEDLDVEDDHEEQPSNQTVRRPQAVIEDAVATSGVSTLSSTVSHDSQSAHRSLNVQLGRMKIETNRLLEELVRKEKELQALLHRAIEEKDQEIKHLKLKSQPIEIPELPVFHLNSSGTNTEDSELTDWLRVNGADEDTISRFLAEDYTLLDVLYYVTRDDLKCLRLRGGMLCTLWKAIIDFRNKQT
Assay: ASK1 kinase HTRF assay (HTRF KinEASE-STK, phosphorylation of biotinylated peptide substrate)
Format: biochemical
Details: 3 nM ASK1 kinase, 1 uM STK-substrate-biotin, HTRF detection; read-out: EC50
How it was run: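 HTRF KinEASE-STK read-out of biotinylated peptide phosphorylation. Compound incubated with 3 nM ASK1 and 1 uM STK-substrate-biotin in kinase buffer containing 5 mM MgCl2 and 1 mM DTT.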

Structure (SMILES) | EC50 [µM]
CC(C)n1cnnc1-c1cccc(NC(=O)Nc2cc(C(=O)Nc3ccccc3)ccn2)n1 [Compound I-152] | < 0.05
C[C@H](CO)n1cnnc1-c1cccc(NC(=O)Nc2cc(C(=O)Nc3ccccc3)ccn2)n1 [Compound I-153] | < 0.05
CC(C)n1cnnc1-c1cccc(NC(=O)Nc2cc(C(=O)Nc3ccc4ccccc4c3)ccn2)n1 [Compound I-154] | < 0.05
CC(C)n1cnnc1-c1cccc(NC(=O)Nc2cc(C(=O)Nc3ccc(-c4ccccc4)cc3)ccn2)n1 [Compound I-155] | < 0.05
CC(C)n1cnnc1-c1cccc(NC(=O)Nc2cc(C(=O)Nc3ccccc3F)ccn2)n1 [Compound I-156] | < 0.05
CC(C)n1cnnc1-c1cccc(NC(=O)Nc2cc(C(=O)Nc3cccc(F)c3)ccn2)n1 [Compound I-157] | < 0.05
CC(C)n1cnnc1-c1cccc(NC(=O)Nc2cc(C(=O)Nc3ccc(F)cc3)ccn2)n1 [Compound I-158] | < 0.05
C[C@H](CO)n1cnnc1-c1cccc(NC(=O)Nc2cc(C(=O)Nc3ccc(F)cc3)ccn2)n1 [Compound I-159] | < 0.05
CC(C)n1cnnc1-c1cccc(NC(=O)Nc2cc(C(=O)Nc3ccc(C(C)(C)C)cc3)ccn2)n1 [Compound I-160] | < 0.05
CC(C)n1cnnc1-c1cccc(NC(=O)Nc2cc(C(=O)Nc3ccccn3)ccn2)n1 [Compound I-161] | < 0.05
CC(C)n1cnnc1-c1cccc(NC(=O)Nc2cc(C(=O)Nc3cccnc3)ccn2)n1 [Compound I-162] | < 0.05
CC(C)n1cnnc1-c1cccc(NC(=O)Nc2cc(C(=O)Nc3ccncc3)ccn2)n1 [Compound I-163] | < 0.05
C[C@H](CO)n1cnnc1-c1cccc(NC(=O)Nc2cc(C(=O)Nc3ccncc3)ccn2)n1 [Compound I-164] | < 0.05
CC(C)n1cnnc1-c1cccc(NC(=O)Nc2ccc(N3CCCC3)cn2)n1 [Compound I-165] | < 0.05
CC(C)n1cnnc1-c1cccc(NC(=O)Nc2cccc(N3CCCC3)n2)n1 [Compound I-166] | 0.05 to 0.5
CC(C)n1cnnc1-c1cccc(NC(=O)Nc2cc(N3CCCC3)ccn2)n1 [Compound I-167] | < 0.05
CC(C)n1cnnc1-c1cccc(NC(=O)Nc2ccc(-n3ccnc3)cn2)n1 [Compound I-168] | 0.05 to 0.5
CC(C)n1cnnc1-c1cccc(NC(=O)Nc2ccc(-n3cnc(C4CC4)c3)cn2)n1 [Compound I-169] | < 0.05
CC(C)n1cnnc1-c1cccc(NC(=O)Nc2cc(-n3cnc(C4CC4)c3)ccn2)n1 [Compound I-170] | < 0.05
CC(C)n1cnnc1-c1cccc(NC(=O)Nc2cccc(-c3nncn3C(C)C)n2)n1 [Compound I-171] | 0.05 to 0.5
CC(C)n1cnnc1-c1cccc(NC(=O)Nc2ncccc2I)n1 [Compound I-172] | < 0.05

Structure (SMILES) | EC50 [µM]
CC(C)n1cnnc1-c1cccc(NC(=O)Nc2cc(I)ccn2)n1 [Compound I-173] | < 0.05
CC(C)n1cnnc1-c1cccc(NC(=O)Nc2ccc(I)cn2)n1 [Compound I-174] | < 0.05
CC(C)n1cnnc1-c1cccc(NC(=O)Nc2cc([N+](=O)[O-])ccn2)n1 [Compound I-175] | < 0.05
CC(C)n1cnnc1-c1cccc(NC(=O)Nc2ncccc2Br)n1 [Compound I-176] | < 0.05
CC(C)n1cnnc1-c1cccc(NC(=O)Nc2cc(Br)ccn2)n1 [Compound I-177] | < 0.05
CC(C)n1cnnc1-c1cccc(NC(=O)Nc2ccc(Br)cn2)n1 [Compound I-178] | < 0.05
CC(C)n1cnnc1-c1cccc(NC(=O)Nc2cccc(Br)n2)n1 [Compound I-179] | < 0.05
CC(C)n1cnnc1-c1cccc(NC(=O)Nc2ncccc2Cl)n1 [Compound I-180] | < 0.05
CC(C)n1cnnc1-c1cccc(NC(=O)Nc2cc(Cl)ccn2)n1 [Compound I-181] | < 0.05
C[C@H](CO)n1cnnc1-c1cccc(NC(=O)Nc2cc(Cl)ccn2)n1 [Compound I-182] | < 0.05
C[C@@H](CO)n1cnnc1-c1cccc(NC(=O)Nc2cc(Cl)ccn2)n1 [Compound I-183] | < 0.05
CC(C)n1cnnc1-c1cccc(NC(=O)Nc2ccc(Cl)cn2)n1 [Compound I-184] | < 0.05
CC(C)n1cnnc1-c1cccc(NC(=O)Nc2cccc(Cl)n2)n1 [Compound I-185] | < 0.05
CC(C)n1cnnc1-c1cccc(NC(=O)Nc2ncccc2F)n1 [Compound I-186] | < 0.05
CC(C)n1cnnc1-c1cccc(NC(=O)Nc2cc(F)ccn2)n1 [Compound I-187] | < 0.05
CC(C)n1cnnc1-c1cccc(NC(=O)Nc2ccc(F)cn2)n1 [Compound I-188] | < 0.05
CNc1ccc(NC(=O)Nc2cccc(-c3nncn3C(C)C)n2)nc1 [Compound I-189] | < 0.05
CNc1ccnc(NC(=O)Nc2cccc(-c3nncn3C(C)C)n2)c1 [Compound I-190] | < 0.05
CC(C)n1cnnc1-c1cccc(NC(=O)Nc2ccc(N(C)C)cn2)n1 [Compound I-191] | < 0.05
CC(C)n1cnnc1-c1cccc(NC(=O)Nc2cc(N(C)C)ccn2)n1 [Compound I-192] | < 0.05
CC(C)n1cnnc1-c1cccc(NC(=O)Nc2ncccc2C(F)(F)F)n1 [Compound I-193] | < 0.05

Structure (SMILES) | EC50 [µM]
CC(C)n1cnnc1-c1cccc(NC(=O)Nc2ccc(C(F)(F)F)cn2)n1 [Compound I-195] | < 0.05
CC(C)n1cnnc1-c1cccc(NC(=O)Nc2cccc(C(F)(F)F)n2)n1 [Compound I-196] | < 0.05
CC(C)n1cnnc1-c1cccc(NC(=O)Nc2cc(C#N)ccn2)n1 [Compound I-198] | < 0.05
CC(C)n1cnnc1-c1cccc(NC(=O)Nc2ccc(C#N)cn2)n1 [Compound I-199] | < 0.05
CC(C)n1cnnc1-c1cccc(NC(=O)Nc2cccc(C#N)n2)n1 [Compound I-200] | < 0.05
CC(C)n1cnnc1-c1cccc(NC(=O)Nc2ncccc2C(=O)O)n1 [Compound I-201] | 0.05 to 0.5
CC(C)n1cnnc1-c1cccc(NC(=O)Nc2cc(C(=O)O)ccn2)n1 [Compound I-202, 2-(3-(6-(4-Isopropyl-4H-1,2,4-triazol-3-yl)pyridin-2-yl)ureido)isonicotinic acid] | < 0.05
CC(C)n1cnnc1-c1cccc(NC(=O)Nc2cc(S(C)(=O)=O)ccn2)n1 [Compound I-204] | < 0.05
CC(C)n1cnnc1-c1cccc(NC(=O)Nc2cc(S(N)(=O)=O)ccn2)n1 [Compound I-205] | < 0.05
CC(C)n1cnnc1-c1cccc(NC(=O)Nc2cc(S(=O)(=O)N3CCCCC3)ccn2)n1 [Compound I-206] | < 0.05
CC(C)n1cnnc1-c1cccc(NC(=O)Nc2cc(S(=O)(=O)N3CCOCC3)ccn2)n1 [Compound I-207] | < 0.05
CC(C)n1cnnc1-c1cccc(NC(=O)Nc2ccc(CO)cn2)n1 [Compound I-208] | < 0.05
CC(C)n1cnnc1-c1cccc(NC(=O)Nc2ccc(N)cn2)n1 [Compound I-209] | < 0.05
CC(C)n1cnnc1-c1cccc(NC(=O)Nc2ccc([N+](=O)[O-])cn2)n1 [Compound I-210] | < 0.05
Cc1cnc(NC(=O)Nc2cccc(-c3nncn3C(C)C)n2)nc1 [Compound I-211] | < 0.05
CC(C)n1cnnc1-c1cccc(NC(=O)Nc2ncccn2)n1 [Compound I-212] | < 0.05
CC(C)n1cnnc1-c1cccc(NC(=O)Nc2cc(C(C)(C)O)ccn2)n1 [Compound I-213] | < 0.05
CC(C)n1cnnc1-c1cccc(NC(=O)Nc2ccc(C(C)(C)O)cn2)n1 [Compound I-214] | < 0.05
CC(C)n1cnnc1-c1cccc(NC(=O)Nc2ncco2)n1 [Compound I-215] | < 0.05
CC(C)n1cnnc1-c1cccc(NC(=O)Nc2nc3ccccc3o2)n1 [Compound I-216] | < 0.05
C[C@H](CO)n1cnnc1-c1cccc(NC(=O)Nc2nc3ccccc3o2)n1 [Compound I-217] | < 0.05
